# “And” between values parts separate entries of the source, which are not always exact repeats. Equal entries are not always repeated.
# Columns and labels:
# Test in all cases: Checkerboard combination MIC testing
# Format in all cases: cell-based, Aspergillus fumigatus
# [1] = tested on: A. fumigatus MRL #28500; settings: read at 48 hours, duplicate
# Excerpt: (§1) To determine the type of interaction between a representative compound of the enfumafungin derivatives (SCY-078) with several antifungal agents against Aspergillus fumigatus, the most frequent mold causing invasive disease in humans, the checkerboard method was used. The citrate salt of the compound was used in the studies.
# (§2) The checkerboard method involves the determination of percent growth inhibition of fungal cells in the presence of different combinations of drugs. Percent growth inhibition is calculated relative to growth in control wells which contain only cells and no drug. The assay was performed in 96-well microplates in which each row and each column contained twofold serial dilutions of drug A and drug B at concentrations ranging from 0 to slightly higher than their minimum inhibitory concentration (MIC). […] Then the inoculum was added to each well and the growth was evaluated after 48 hrs incubation to determine the first well in which growth was inhibited. The checkerboard-based determination of MICs of antifungal agents in combination was followed by further analysis employing the nonparametric fractional inhibitory concentration index (FICI), which is defined by the following equation:
# (§3) [formula] where MIC-A and MIC-B are the MICs of drugs A and B, respectively.
# (§4) Each drug was initially diluted in either sterile, distilled water or in DMSO, depending on whether the drug was water-soluble or water-insoluble, respectively.
# (§5) Stock solution of SCY-078 was prepared in DMSO at 200 times the concentration desired for use in the drug plates. Serial dilutions of stock solution were conducted in DMSO to obtain eleven 2-fold dilutions of the drug. The SCY-078 solution was then diluted to 4 times the desired concentration in RPMI-1640 medium so that the DMSO would not limit growth of the organism and so that the quantity of DMSO was the same for every dilution.
# (§6) Two 96-well plates are needed to conduct a combination test. Using a multichannel pipette, 50 μl of the lowest concentration of the first drug (Drug A) was added to each well of column 1 of the first plate (plate A) and column 1 of the second plate (plate B; rows A-D). Then, 50 μl of the next highest working dilution of Drug A was added to each well in column 2, continuing with dilutions until all columns 1-11 were filled. Column 12 was left empty. 50 μl of the lowest concentration of Drug B was added to each well in Row D of plate B. 50 μl of the next highest working dilution of Drug B was added to each well in row C of plate B, continuing with dilutions until all rows through row B of plate A were filled.
# (§7) Following the above, 100 μl of organism inoculum was added to every well. The plates were then incubated for 48 hours and visually read after incubation.
# (§8) The objective of the study was to determine whether the combination of SCY-078 with voriconazole, isavuconazole, or amphotericin B would result in a combined in vitro antifungal activity exceeding the sum of the activities of each drug alone. Combination MIC testing was performed using the checkerboard assay described above.
# A. fumigatus 28500 has a CYP51 mutation at F46Y.
# (§9) Initial MIC determinations of the individual antifungals were performed according to the Clinical and Laboratory Standards Institute (CLSI) M38-A2 standard for the susceptibility testing of filamentous fungi.
# (§10) Combination MIC testing was performed using a checkerboard test method according to the Center for Medical Mycology SOP A11.3. The checkerboard combination test method is a modification of the microdilution antifungal susceptibility test wherein two test compounds are combined in varying concentrations to determine whether they have synergistic, antagonistic, or no effect on the respective MIC values.
# Antifungals were serially diluted two-fold in RPMI medium to produce eleven concentrations each and were combined in wells of a microtiter plate. Two rows consisting of serial dilutions of each individual drug were included. […]
# [2] = tested on: A. fumigatus MRL #28401; settings: A. fumigatus MRL 28401 (wild-type), read at 48 hours, duplicate
# Excerpt: as §1, §2, §3, §4, §5, §6, §7, §8, §9, §10
# (§11) Antifungals were serially diluted two-fold in RPMI medium to produce eleven concentrations each and were combined in wells of a microtiter plate. Two rows consisting of serial dilutions of each individual drug were included. All combination testing was conducted in duplicate. […]
# [3] = tested on: A. fumigatus MRL #28378; settings: A. fumigatus MRL 28378 (wild-type), read at 48 hours, duplicate
# Excerpt: as §1, §2, §3, §4, §5, §6, §7, §8, §9, §10, §11
# [4] = tested on: A. fumigatus MRL #28383; settings: A. fumigatus MRL 28383 (azole-resistant), read at 48 hours, duplicate
# Excerpt: as §1, §2, §3, §4, §5, §6, §7, §8, §9, §10, §11
# [5] = tested on: A. fumigatus MRL #20438; settings: A. fumigatus MRL 20438 (wild-type), read at 48 hours, duplicate
# Excerpt: as §1, §2, §3, §4, §5, §6, §7, §8, §9, §10, §11
# [6] = tested on: A. fumigatus MRL #28382; settings: A. fumigatus MRL 28382 (wild-type), read at 48 hours, duplicate
# Excerpt: as §1, §2, §3, §4, §5, §6, §7, §8, §9, §10, §11
# [7] = SCY-078 combined with amphotericin B
# [8] = drug alone, SCY-078/amphotericin B test
# [9] = SCY-078 combined with voriconazole
# [10] = Aspergillus fumigatus, SCY078, 48 h, drug alone, SCY-078/voriconazole test, read-out: MIC Alone
smiles,measurement,setting,value
"C[C@@H]1[C@H](O)[C@@H](C)/C=C/C=C/C=C/C=C/C=C/C=C/C=C/[C@H](O[C@@H]2O[C@H](C)[C@@H](O)[C@H](N)[C@@H]2O)C[C@@H]2O[C@](O)(C[C@@H](O)C[C@@H](O)[C@H](O)CC[C@@H](O)C[C@@H](O)CC(=O)O[C@H]1C)C[C@H](O)[C@H]2C(=O)O [Amphotericin B, amphotericin B]",MIC in Combination,"[1]; A. fumigatus MRL 28500 (azole-resistant, CYP51 F46Y), SCY-078 combined with amphotericin B",1 µg/mL
same,MIC Alone,"[1]; A. fumigatus MRL 28500 (azole-resistant, CYP51 F46Y), drug alone, SCY-078/amphotericin B test",4 µg/mL
same,MIC in Combination,[2]; [7],1 µg/mL and 0.5 µg/mL
same,MIC Alone,[2]; [8],4 µg/mL
same,MIC in Combination,[3]; [7],0.5 µg/mL
same,MIC Alone,[3]; [8],2 µg/mL
same,MIC in Combination,[4]; [7],4 µg/mL and 2 µg/mL
same,MIC Alone,[4]; [8],4 µg/mL and 2 µg/mL
same,MIC in Combination,[5]; [7],0.5 µg/mL
same,MIC Alone,[5]; [8],4 µg/mL
same,MIC in Combination,[6]; [7],1 µg/mL and 0.5 µg/mL
same,MIC Alone,[6]; [8],4 µg/mL
"C[C@@H](c1ncncc1F)[C@](O)(Cn1cncn1)c1ccc(F)cc1F [Voriconazole, voriconazole]",MIC in Combination,"[1]; A. fumigatus MRL 28500 (azole-resistant, CYP51 F46Y), SCY-078 combined with voriconazole",>16 µg/mL
same,MIC,"[1]; Aspergillus fumigatus, SCY078, 48 h, read-out: MIC Alone, A. fumigatus MRL 28500 (azole-resistant, CYP51 F46Y), drug alone, SCY-078/voriconazole test",> 16 µg/mL
same,MIC in Combination,[2]; [9],0.5 µg/mL
same,MIC,[2]; [10],2 µg/mL
same,MIC Alone,"[3]; drug alone, SCY-078/voriconazole test",0.25 µg/mL
same,MIC,[3]; [10],0.5 µg/mL
same,MIC in Combination,[4]; [9],>16 µg/mL
same,MIC,[4]; [10],> 16 µg/mL
same,MIC in Combination,[5]; [9],0.25 µg/mL
same,MIC,[5]; [10],1 µg/mL
same,MIC in Combination,[6]; [9],0.125 µg/mL and 0.25 µg/mL
same,MIC,[6]; [10],0.5 µg/mL

# Reference: patent US11110102B2, “Antifungal agents used in combination” (Scynexis, Inc., priority 2017, dated 2021)
